Measured values published in US11674962B2, “Therapeutic and diagnostic methods for cancer” (Genentech, Inc., priority 2017, dated 2023).
Where “and” joins values, the source holds several entries; their conditions need not be identical. Equal entries are not always repeated.

Tested on: locally advanced or metastatic non-small cell lung cancer (NSCLC)
Assay: POPLAR phase II clinical trial (NCT01903993): atezolizumab vs docetaxel, outcomes by bTMB score
Type: in vivo, human
Conditions: for OS HR (95% CI) / PFS HR (95% CI) / OS HR / PFS HR: atezolizumab vs docetaxel
Experimental: A blood-based assay was used to evaluate the association between clinical response to treatment with atezolizumab (MPDL3280A) and blood tumor mutational burden (bTMB) score in patients with non-small cell lung cancer (NSCLC) enrolled in two clinical trials, a phase II clinical trial, POPLAR (Clinical Trial ID No.: NCT01903993), and a phase III clinical trial, OAK (Clinical Trial ID No.: NCT02008227), in which atezolizumab was administered as a monotherapy.
Pre-treatment blood samples from patients with NSCLC who were enrolled in the POPLAR and/or the OAK studies, in which atezolizumab was administered as a monotherapy, were evaluated for bTMB score and/or maximum somatic allele frequency (MSAF).
The POPLAR (Clinical Trial ID No.: NCT01903993) patient population evaluated for bTMB score consisted of 273 patients. Patients were eligible for enrollment in the POPLAR study if they had locally advanced or metastatic (e.g., stage IIIB, stage IV, or recurrent) non-small cell lung cancer (NSCLC); disease progression during or following treatment with a prior platinum-containing regimen for locally advanced, unresectable/inoperable, or metastatic NSCLC, or disease recurrence within 6 months of treatment with a platinum-based adjuvant/neoadjuvant regimen; measurable disease, as defined by RECIST v1.1; and an Eastern Cooperative Oncology Group (ECOG) performance status of 0 or 1. Participants were randomized to receive either atezolizumab at a dose of 1200 mg intravenously every three weeks or docetaxel 75 mg per meter square (mg/m^2) intravenously every three weeks. Treatment with atezolizumab could be continued as long as participants were experiencing clinical benefit, i.e., in the absence of unacceptable toxicity or symptomatic deterioration attributed to disease progression.
Analysis of bTMB was performed retrospectively. Progression-free survival (PFS) was defined as the time between date of randomization and date of first documented disease progression as assessed by the investigator using RECIST v.1.1 or death from any cause, whichever occurred first. Overall survival (OS) was defined as the time between the date of randomization until death due to any cause. Treatment arms were compared for OS and PFS individually using a univariate Cox regression model without stratification in the biomarker evaluable-population (BEP) and their subgroups or using a stratified (by randomization stratification factors) Cox model in the ITT population. No multiplicity correction was applied to p-values or confidence intervals (CI). Kaplan-Meier methodology was used to estimate median OS and PFS and construct survival curves.
In the POPLAR ITT population (N=287), 273 samples were available for analysis. Of these, 6 were removed for sample contamination >1%; 9 were removed for median exon coverage <800×; and 47 were removed for low MSAF<1%.
The POPLAR BEP (N=211) includes 15 patients with EGFR mutation or ALK rearrangement, and 196 without known alterations.
To identify somatic mutations and calculate a bTMB score, whole blood samples obtained from each patient (collected in EDTA or Streck tubes) were processed through a series of spins to isolate plasma, from which cell free DNA (cfDNA) was extracted for sequencing analysis. Specifically, at least 20 ng purified cfDNA was used for library construction. Next-generation sequencing libraries using fragment barcodes and hybrid capture were constructed to analyze and sequence a pre-determined set of 394 genes that covered approximately 1.125 Mb of the exome. Specifically, purified libraries were hybrid captured using a 394-gene bait set and then further purified, pooled and loaded on an ILLUMINA® HISEQ® 4000 sequencing system. Sequenced libraries were aligned and sorted. […]

[1] = bTMB score subgroup ≥10 (96 patients)
[2] = bTMB score subgroup ≥16 (63 patients)
[3] = bTMB score subgroup ≥20 (42 patients)

## atezolizumab
BEP (n = 211)
  OS HR (95% CI): 0.68
  PFS HR (95% CI): 0.9
ITT (n = 287)
  OS HR (95% CI): 0.69 and 0.73
  PFS HR (95% CI): 0.92 and 0.94
[1]
  OS HR: 0.59
  PFS HR: 0.68
[2]
  OS HR: 0.56
  PFS HR: 0.57
[3]
  OS HR: 0.51
  PFS HR: 0.58
bTMB≥16, per treatment arm
  median OS: 13.0 months
  median PFS: 4.2 months
Reference bTMB score of 18 (Dx+, n=52)
  PFS HR: 0.57
